Data taken from ChEMBL document CHEMBL1201862, “PubChem BioAssay data set” (2004).
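Exposure lasted 48 hours, with cells grown in 96-well plates and compounds tested at five concentrations. GI50 marks 50% less growth.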 The source made the active and inactive calls. No stated cut-off is given here; in the data, active = GI50 up to about 1.1 µM and inactive = higher.

Experiments:
Test in all cases: NCI tumour cell line growth inhibition, 48 h
NCI-H23 = tested on: NCI-H23
CCRF-CEM = tested on: CCRF-CEM
MOLT-4 = tested on: MOLT-4
KM-20L2 = tested on: KM-20L2
EKVX = tested on: EKVX
KM12 = tested on: KM12
NCI-H460 = tested on: NCI-H460
SW-620 = tested on: SW-620
U-251 = tested on: U-251
SK-MEL-2 = tested on: SK-MEL-2
A549 = tested on: A549
SNB-75 = tested on: SNB-75
OVCAR-4 = tested on: OVCAR-4
ACHN = tested on: ACHN
786-0 = tested on: 786-0
COLO 205 = tested on: COLO 205
A498 = tested on: A498
CAKI-1 = tested on: CAKI-1
UACC-257 = tested on: UACC-257
MDA-MB-231 = tested on: MDA-MB-231

Row | Compound | GI50 (NCI-H23) | GI50 (CCRF-CEM) | GI50 (MOLT-4) | GI50 (KM-20L2) | GI50 (EKVX) | GI50 (KM12) | GI50 (NCI-H460) | GI50 (SW-620) | GI50 (U-251) | GI50 (SK-MEL-2) | GI50 (A549) | GI50 (SNB-75) | GI50 (OVCAR-4) | GI50 (ACHN) | GI50 (786-0) | GI50 (COLO 205) | GI50 (A498) | GI50 (CAKI-1) | GI50 (UACC-257) | GI50 (MDA-MB-231)
1 | Cc1cc(C)nc(NS(=O)(=O)c2ccc(Nc3c4ccccc4nc4c(C(=O)NCCN(C)C)cccc34)cc2)n1 | 4.26 µM (inactive) | 1.26 µM (inactive) | 0.277 µM (active) | 6.61 µM (inactive) | 10.5 µM (inactive) | 3.43 µM (inactive) | 0.771 µM (active) | 0.764 µM (active) | 3.72 µM (inactive) | 4.89 µM (inactive) | 3.13 µM (inactive) | 10.7 µM (inactive) | 3.04 µM (inactive) | 3.49 µM (inactive) | 11.6 µM (inactive) | 1.86 µM (inactive) |  |  |  | 
2 | CC1=NN(C(=O)CC(=O)Nc2ccc(C)cc2)C(=O)C1/N=N\c1ccc(S(=O)(=O)c2ccc(/N=N/C3C(=O)N(C(=O)CC(=O)Nc4ccc(C)cc4)N=C3C)cc2)cc1 (stereo not drawn) | > 100 µM (inactive) | 9.4 µM (inactive) | 42.5 µM (inactive) |  | > 100 µM (inactive) | 65.6 µM (inactive) | 38.5 µM (inactive) | 32.7 µM (inactive) | 52.1 µM (inactive) | 58.6 µM (inactive) | 31.6 µM (inactive) | > 100 µM (inactive) | > 100 µM (inactive) | 62.8 µM (inactive) | 21 µM (inactive) | > 100 µM (inactive) | > 100 µM (inactive) | > 100 µM (inactive) | > 100 µM (inactive) | 35.6 µM (inactive)
3 | Nc1nc(=O)n(C2CC(O)C(CO)O2)c2nc(-c3ccc(-c4ccccc4)cc3)cnc12 (stereo not drawn) | 99.3 µM (inactive) | 27.6 µM (inactive) | 25.9 µM (inactive) |  | 96.4 µM (inactive) | > 10 µM (inactive) | > 100 µM (inactive) | > 100 µM (inactive) | 18.6 µM (inactive) | 44.6 µM (inactive) | > 100 µM (inactive) | 23 µM (inactive) | > 100 µM (inactive) | > 100 µM (inactive) | 40.1 µM (inactive) | > 100 µM (inactive) | > 100 µM (inactive) | > 100 µM (inactive) | > 100 µM (inactive) | 21.9 µM (inactive)
4 | CN(CC(=O)O)CC(=O)O | > 100 µM (inactive) | > 100 µM (inactive) | > 100 µM (inactive) |  | > 100 µM (inactive) | > 100 µM (inactive) | > 100 µM (inactive) | > 100 µM (inactive) | > 100 µM (inactive) | > 100 µM (inactive) | > 100 µM (inactive) | 0.427 µM (active) | > 100 µM (inactive) | > 100 µM (inactive) | > 100 µM (inactive) | 68.2 µM (inactive) | > 100 µM (inactive) | > 100 µM (inactive) | > 100 µM (inactive) | > 100 µM (inactive)
5 | COc1ccc2c(c1)N(CCC1CCCCN1C)c1ccccc1S2 (stereo not drawn) [OXYRIDAZINE] | 17.1 µM (inactive) | 10.1 µM (inactive) | 4.85 µM (inactive) |  | 19.4 µM (inactive) | 10.8 µM (inactive) | 7.46 µM (inactive) | 14.7 µM (inactive) | 11.3 µM (inactive) | 14.7 µM (inactive) | 14.1 µM (inactive) | 11.6 µM (inactive) | 11.1 µM (inactive) | 13.8 µM (inactive) | 13.1 µM (inactive) | 12.3 µM (inactive) | 10.8 µM (inactive) | 9.48 µM (inactive) | 5.08 µM (inactive) | 11 µM (inactive)
6 | Cc1ccc(S(=O)(=O)NC(CCC(=O)NNc2ccccc2)C(=O)NNc2ccccc2)cc1 (stereo not drawn) | 61.4 µM (inactive) | 51.4 µM (inactive) | 3.85 µM (inactive) |  | > 100 µM (inactive) | 2.84 µM (inactive) | 16.8 µM (inactive) | 6.65 µM (inactive) | 3.08 µM (inactive) | 13.5 µM (inactive) | 15.6 µM (inactive) | > 100 µM (inactive) | 25.8 µM (inactive) | 2.13 µM (inactive) | > 100 µM (inactive) | 13.4 µM (inactive) | > 100 µM (inactive) | > 100 µM (inactive) | 15.1 µM (inactive) | > 100 µM (inactive)
7 | COc1ccccc1C(=O)c1c(N2CCCCC2)c(=O)c1=O | > 100 µM (inactive) | > 100 µM (inactive) | > 100 µM (inactive) |  | > 100 µM (inactive) | 78.7 µM (inactive) | > 100 µM (inactive) | > 100 µM (inactive) | > 100 µM (inactive) | > 100 µM (inactive) | > 100 µM (inactive) | > 100 µM (inactive) | > 100 µM (inactive) | > 100 µM (inactive) | > 100 µM (inactive) | > 100 µM (inactive) | > 100 µM (inactive) | > 100 µM (inactive) | > 100 µM (inactive) | > 100 µM (inactive)
8 | CSC1=NC(=O)CCN1C1OCC(OC(C)=O)C(OC(C)=O)C1OC(C)=O (stereo not drawn) | 20.8 µM (inactive) | 5.9 µM (inactive) | 4.66 µM (inactive) |  | 20.1 µM (inactive) | 21.5 µM (inactive) | 10.4 µM (inactive) | 18.3 µM (inactive) | 15.8 µM (inactive) | 13.6 µM (inactive) | 18.6 µM (inactive) | 14.7 µM (inactive) | 19.2 µM (inactive) | 17 µM (inactive) | 16.3 µM (inactive) | 23.9 µM (inactive) | 15.6 µM (inactive) | 24.7 µM (inactive) | 18.4 µM (inactive) | 12.4 µM (inactive)
9 | CC(=O)c1c(-c2ccccc2)c(-c2ccc(OCCN(C)C)cc2)n2ccccc12 | 18.7 µM (inactive) | 21 µM (inactive) | 15 µM (inactive) |  | 17.5 µM (inactive) | 13.5 µM (inactive) | 13.2 µM (inactive) | 17.9 µM (inactive) | 17 µM (inactive) | 19.1 µM (inactive) | 21.2 µM (inactive) | 12.4 µM (inactive) | 24.8 µM (inactive) | 15.8 µM (inactive) | 18.3 µM (inactive) | 14 µM (inactive) | 19.2 µM (inactive) | 18.5 µM (inactive) | 15.5 µM (inactive) | 16.9 µM (inactive)
10 | O=C(O)c1c2c(cc3c(=O)c4ccccc4[nH]c13)CCCC2 | > 100 µM (inactive) | > 100 µM (inactive) | > 100 µM (inactive) | > 100 µM (inactive) | > 100 µM (inactive) |  | > 100 µM (inactive) | 65.2 µM (inactive) | > 10 µM (inactive) | > 100 µM (inactive) | > 100 µM (inactive) | > 100 µM (inactive) |  | > 100 µM (inactive) | 72.8 µM (inactive) | > 100 µM (inactive) |  |  | > 100 µM (inactive) | 
11 | COC1CC(n2cc(F)c(N)nc2=O)OC1CO (stereo not drawn) | > 100 µM (inactive) | > 100 µM (inactive) | > 100 µM (inactive) | > 100 µM (inactive) | > 100 µM (inactive) | > 100 µM (inactive) | 94 µM (inactive) | > 100 µM (inactive) | > 100 µM (inactive) | > 100 µM (inactive) | > 100 µM (inactive) | > 100 µM (inactive) | > 100 µM (inactive) | > 100 µM (inactive) | > 100 µM (inactive) | > 100 µM (inactive) |  | > 100 µM (inactive) | > 100 µM (inactive) | 
12 | CN(C(=O)Cc1cccc(N=C=S)c1)[C@H]1CCCC[C@@H]1N1CCCC1 | 14.2 µM (inactive) | 12.5 µM (inactive) | 5.24 µM (inactive) |  | 18.1 µM (inactive) | 17.9 µM (inactive) | 16.7 µM (inactive) | 11.6 µM (inactive) | 17.1 µM (inactive) | 18.7 µM (inactive) | 16.4 µM (inactive) | 14.1 µM (inactive) | 14.7 µM (inactive) | 14.1 µM (inactive) | 15.1 µM (inactive) | 11.8 µM (inactive) | 17.2 µM (inactive) | 15.4 µM (inactive) | 13.5 µM (inactive) | 16.9 µM (inactive)
13 | COC1/C=C/C(C)C(C(C)C(OC)C(C)CCC(=O)C(C)C(CC(=O)O)OC)OC(=O)/C=C/C=C(\C)CC(OC)CC2=CC(=O)O[C@H](C2)C(C)C(OC)CC(OC)/C=C/C(C)C(OC)C1 (stereo partly drawn) | 0.879 µM (active) | 0.191 µM (active) | 1.46 µM (inactive) |  | 0.396 µM (active) | 0.452 µM (active) | 0.195 µM (active) | 0.348 µM (active) | 0.195 µM (active) | 0.265 µM (active) | 0.299 µM (active) | 0.00746 µM (active) | 0.275 µM (active) | 0.562 µM (active) | 0.286 µM (active) | 0.0977 µM (active) | 0.24 µM (active) | 0.0621 µM (active) | 0.449 µM (active) | 0.45 µM (active)
14 | CC(=O)c1c(O)c2c([nH]c1=O)CCCC2 | 41.1 µM (inactive) | > 100 µM (inactive) | 8.34 µM (inactive) | 43.1 µM (inactive) | 51.1 µM (inactive) |  | 6.84 µM (inactive) | > 100 µM (inactive) | 23.6 µM (inactive) |  | 30 µM (inactive) | 10.6 µM (inactive) | > 100 µM (inactive) | > 100 µM (inactive) | > 100 µM (inactive) | > 100 µM (inactive) |  | > 100 µM (inactive) |  | 
15 | C[C@]12OC[C@H](c3ccccc3)N1C(=O)C1[C@H]2CC12SCCS2 (stereo partly drawn) | > 100 µM (inactive) | > 100 µM (inactive) | > 100 µM (inactive) |  | > 100 µM (inactive) | > 100 µM (inactive) | > 100 µM (inactive) | > 100 µM (inactive) | > 100 µM (inactive) | > 100 µM (inactive) | > 100 µM (inactive) | > 100 µM (inactive) | > 100 µM (inactive) | > 100 µM (inactive) | > 100 µM (inactive) | > 100 µM (inactive) | > 100 µM (inactive) | > 100 µM (inactive) | > 100 µM (inactive) | > 100 µM (inactive)
